Laboratory results reported in ChEMBL document CHEMBL1201862, “PubChem BioAssay data set” (2004).
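Dose response: 5 concentrations. Exposure: 48 h. Format: 96-well plates. Endpoint: linear interpolation; highest concentration if not reached. Abbreviation: GI50, concentration required for 50% inhibition of growth.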 Calls of active or inactive are those of the source. Cut-off read from the data, not from the text of the source: active = GI50 up to about 1.1 µM and inactive = higher.

Columns and labels:
Assay in all cases: NCI tumour cell line growth inhibition, 48 h
786-0 = test system: 786-0
A549 = test system: A549
ACHN = test system: ACHN
CAKI-1 = test system: CAKI-1
CCRF-CEM = test system: CCRF-CEM
COLO 205 = test system: COLO 205
DLD-1 = test system: DLD-1
DMS-114 = test system: DMS-114
DMS-273 = test system: DMS-273
EKVX = test system: EKVX
HCC 2998 = test system: HCC 2998
HCT-116 = test system: HCT-116
HCT-15 = test system: HCT-15
HL-60 = test system: HL-60
HOP-92 = test system: HOP-92
HT-29 = test system: HT-29
IGROV-1 = test system: IGROV-1
K562 = test system: K562
KM-20L2 = test system: KM-20L2
KM12 = test system: KM12
LOX IMVI = test system: LOX IMVI
LXFL 529 = test system: LXFL 529
M14 = test system: M14
M19-MEL = test system: M19-MEL
MOLT-4 = test system: MOLT-4
Malme-3M = test system: Malme-3M
NCI-H226 = test system: NCI-H226
NCI-H23 = test system: NCI-H23
NCI-H460 = test system: NCI-H460
NCI-H522 = test system: NCI-H522
OVCAR-3 = test system: OVCAR-3
OVCAR-4 = test system: OVCAR-4
OVCAR-5 = test system: OVCAR-5
OVCAR-8 = test system: OVCAR-8
RPMI-8226 = test system: RPMI-8226
RXF 393 = test system: RXF 393
RXF 631 = test system: RXF 631
SF-268 = test system: SF-268
SF-295 = test system: SF-295
SF-539 = test system: SF-539
SK-MEL-28 = test system: SK-MEL-28
SK-MEL-2 = test system: SK-MEL-2
SK-OV-3 = test system: SK-OV-3
SN12C = test system: SN12C
SNB-75 = test system: SNB-75
SR = test system: SR
SW-620 = test system: SW-620
TK-10 = test system: TK-10
U-251 = test system: U-251
UACC-257 = test system: UACC-257
XF498 = test system: XF498
A498 = test system: A498
HOP-18 = test system: HOP-18
HOP-62 = test system: HOP-62
SK-MEL-5 = test system: SK-MEL-5
SNB-78 = test system: SNB-78
UACC-62 = test system: UACC-62
UO-31 = test system: UO-31
SNB-19 = test system: SNB-19

N#[N+][c-]1c(-c2ccccc2)n[nH]c1=O
GI50 (786-0): > 100 µM (inactive)
GI50 (A549): > 100 µM (inactive)
GI50 (ACHN): > 100 µM (inactive)
GI50 (CAKI-1): > 100 µM (inactive)
GI50 (CCRF-CEM): > 100 µM (inactive)
GI50 (COLO 205): > 100 µM (inactive)
GI50 (DLD-1): > 100 µM (inactive)
GI50 (DMS-114): > 100 µM (inactive)
GI50 (DMS-273): > 100 µM (inactive)
GI50 (EKVX): > 100 µM (inactive)
GI50 (HCC 2998): > 100 µM (inactive)
GI50 (HCT-116): > 100 µM (inactive)
GI50 (HCT-15): > 100 µM
GI50 (HL-60): > 100 µM (inactive)
GI50 (HOP-92): > 100 µM (inactive)
GI50 (HT-29): > 100 µM (inactive)
GI50 (IGROV-1): > 100 µM (inactive)
GI50 (K562): 97.9 µM (inactive)
GI50 (KM-20L2): > 100 µM (inactive)
GI50 (KM12): > 100 µM (inactive)
GI50 (LOX IMVI): > 100 µM (inactive)
GI50 (LXFL 529): > 100 µM (inactive)
GI50 (M14): > 100 µM (inactive)
GI50 (M19-MEL): > 100 µM (inactive)
GI50 (MOLT-4): > 100 µM (inactive)
GI50 (Malme-3M): > 100 µM (inactive)
GI50 (NCI-H226): > 100 µM (inactive)
GI50 (NCI-H23): > 100 µM (inactive)
GI50 (NCI-H460): > 100 µM (inactive)
GI50 (NCI-H522): > 100 µM (inactive)
GI50 (OVCAR-3): > 100 µM (inactive)
GI50 (OVCAR-4): > 100 µM (inactive)
GI50 (OVCAR-5): > 100 µM (inactive)
GI50 (OVCAR-8): > 100 µM (inactive)
GI50 (RPMI-8226): > 100 µM (inactive)
GI50 (RXF 393): > 100 µM (inactive)
GI50 (RXF 631): > 100 µM (inactive)
GI50 (SF-268): > 100 µM (inactive)
GI50 (SF-295): > 100 µM (inactive)
GI50 (SF-539): > 100 µM (inactive)
GI50 (SK-MEL-28): > 100 µM (inactive)
GI50 (SK-MEL-2): > 100 µM (inactive)
GI50 (SK-OV-3): > 100 µM (inactive)
GI50 (SN12C): > 100 µM (inactive)
GI50 (SNB-75): > 100 µM (inactive)
GI50 (SR): > 100 µM (inactive)
GI50 (SW-620): > 100 µM (inactive)
GI50 (TK-10): > 100 µM (inactive)
GI50 (U-251): > 100 µM (inactive)
GI50 (UACC-257): > 100 µM (inactive)
GI50 (XF498): > 100 µM (inactive)

COc1ccc(/C=C/C(=O)c2sc(-c3cccnc3)nc2C)cc1
GI50 (786-0): 41.6 µM (inactive)
GI50 (A498): > 100 µM (inactive)
GI50 (A549): 39.2 µM (inactive)
GI50 (CAKI-1): 49.9 µM (inactive)
GI50 (CCRF-CEM): 28.6 µM (inactive)
GI50 (COLO 205): 48.3 µM (inactive)
GI50 (DLD-1): 39.4 µM (inactive)
GI50 (DMS-114): 26.7 µM (inactive)
GI50 (DMS-273): 40.9 µM (inactive)
GI50 (EKVX): > 100 µM (inactive)
GI50 (HCC 2998): 37.5 µM (inactive)
GI50 (HCT-15): 45.3 µM
GI50 (HL-60): 20.4 µM (inactive)
GI50 (HOP-18): 45.3 µM (inactive)
GI50 (HOP-62): 63.7 µM (inactive)
GI50 (HOP-92): 81.5 µM (inactive)
GI50 (HT-29): 36.9 µM (inactive)
GI50 (IGROV-1): 60.1 µM (inactive)
GI50 (K562): 21.8 µM (inactive)
GI50 (KM-20L2): 56.4 µM (inactive)
GI50 (KM12): 15.3 µM (inactive)
GI50 (LOX IMVI): 25.1 µM (inactive)
GI50 (M19-MEL): 67.9 µM (inactive)
GI50 (MOLT-4): 16.7 µM (inactive)
GI50 (Malme-3M): 62.8 µM (inactive)
GI50 (NCI-H226): 23.8 µM (inactive)
GI50 (NCI-H23): 75.5 µM (inactive)
GI50 (NCI-H460): 53.5 µM (inactive)
GI50 (NCI-H522): 20.5 µM (inactive)
GI50 (OVCAR-3): 24.2 µM (inactive)
GI50 (OVCAR-5): > 100 µM (inactive)
GI50 (OVCAR-8): 35.7 µM (inactive)
GI50 (RPMI-8226): 2.9 µM (inactive)
GI50 (RXF 393): 26.3 µM (inactive)
GI50 (RXF 631): 54.3 µM (inactive)
GI50 (SF-268): 74.6 µM (inactive)
GI50 (SF-295): 35.8 µM (inactive)
GI50 (SF-539): 21.1 µM (inactive)
GI50 (SK-MEL-28): 94 µM (inactive)
GI50 (SK-MEL-2): 38.4 µM (inactive)
GI50 (SK-MEL-5): 30.3 µM (inactive)
GI50 (SK-OV-3): 82.6 µM (inactive)
GI50 (SN12C): 64.6 µM (inactive)
GI50 (SNB-75): 30.1 µM (inactive)
GI50 (SNB-78): > 100 µM (inactive)
GI50 (SW-620): 32.8 µM (inactive)
GI50 (TK-10): 38.6 µM (inactive)
GI50 (U-251): 58.3 µM (inactive)
GI50 (UACC-257): > 100 µM (inactive)
GI50 (UACC-62): 46.3 µM (inactive)
GI50 (UO-31): 41.7 µM (inactive)

CC1=CC(=O)C(C)(C2=NC(C)(C)CO2)c2ccccc21 (centres undefined)
GI50 (786-0): > 100 µM (inactive)
GI50 (A549): > 100 µM (inactive)
GI50 (ACHN): > 100 µM (inactive)
GI50 (CAKI-1): > 100 µM (inactive)
GI50 (CCRF-CEM): > 100 µM (inactive)
GI50 (COLO 205): > 100 µM (inactive)
GI50 (DLD-1): > 100 µM (inactive)
GI50 (DMS-114): > 100 µM (inactive)
GI50 (EKVX): > 100 µM (inactive)
GI50 (HCT-116): > 100 µM (inactive)
GI50 (HCT-15): > 100 µM
GI50 (HL-60): > 100 µM (inactive)
GI50 (HOP-18): 31.6 µM (inactive)
GI50 (HOP-62): > 100 µM (inactive)
GI50 (HOP-92): > 100 µM (inactive)
GI50 (HT-29): > 100 µM (inactive)
GI50 (IGROV-1): > 100 µM (inactive)
GI50 (K562): > 100 µM (inactive)
GI50 (KM-20L2): > 100 µM (inactive)
GI50 (KM12): > 100 µM (inactive)
GI50 (LXFL 529): > 100 µM (inactive)
GI50 (M14): > 100 µM (inactive)
GI50 (M19-MEL): > 100 µM (inactive)
GI50 (MOLT-4): > 100 µM (inactive)
GI50 (Malme-3M): > 100 µM (inactive)
GI50 (NCI-H226): > 100 µM (inactive)
GI50 (NCI-H23): > 100 µM (inactive)
GI50 (NCI-H460): > 100 µM (inactive)
GI50 (NCI-H522): > 100 µM (inactive)
GI50 (OVCAR-3): > 100 µM (inactive)
GI50 (OVCAR-4): > 100 µM (inactive)
GI50 (OVCAR-8): > 100 µM (inactive)
GI50 (RPMI-8226): > 100 µM (inactive)
GI50 (RXF 393): > 100 µM (inactive)
GI50 (RXF 631): > 100 µM (inactive)
GI50 (SF-268): > 100 µM (inactive)
GI50 (SF-295): > 100 µM (inactive)
GI50 (SF-539): > 100 µM (inactive)
GI50 (SK-MEL-28): > 100 µM (inactive)
GI50 (SK-MEL-2): > 100 µM (inactive)
GI50 (SK-MEL-5): > 100 µM (inactive)
GI50 (SK-OV-3): > 100 µM (inactive)
GI50 (SN12C): > 100 µM (inactive)
GI50 (SNB-19): > 100 µM (inactive)
GI50 (SNB-75): > 100 µM (inactive)
GI50 (SR): > 100 µM (inactive)
GI50 (SW-620): > 100 µM (inactive)
GI50 (TK-10): > 100 µM (inactive)
GI50 (U-251): > 100 µM (inactive)
GI50 (UACC-257): > 100 µM (inactive)
GI50 (UACC-62): > 100 µM (inactive)
GI50 (UO-31): > 100 µM (inactive)
